Where a name gives a salt, the structure may show the parent alone.
Columns and labels:
Assay type in all cases: physicochemical
[1] = Stability of ceftolozane salts at 25° C. and 60% RH for two or four weeks, loss of purity by HPLC; conditions: 25° C. and 60% relative humidity; for 4 w, Loss of Purity: four weeks; for 2 w, Loss of Purity: two weeks (14 days)
Procedure: (§1) The ceftolozane salt forms provided herein can also be evaluated for stability upon exposure to high temperatures and humidity. The stability evaluation of the ceftolozane salts can be carried out by HPLC analysis using, for example, the method described in Example 1. For examples, the ceftolozane salt forms can be subjected to 40° C. and 75% relative humidity (RH) for one week (7 days) or, 25° C. and 60% relative humidity (RH) for two weeks or for four weeks. The purity and loss of purity (LOP) of these samples can be evaluated by measuring the amount of ceftolozane by HPLC (e.g., Example 1). The results of the stability analysis are summarized in the following Table B: Unless otherwise indicated herein, the HPLC method of Example 1 was used to measure ceftolozane purity disclosed herein. The loss of purity (LOP) was calculated as the difference between the initial ceftolozane purity and the ceftolozane purity after being subject to the conditions of the stability test (e.g., at 40° C. and 75% relative humidity (RH) for one week), wherein the purity was measured using the HPLC method described below. Standards and samples are prepared in 50 mM sodium perchlorate monohydrate, pH 4.00. A quantitation standard (Standard Solution 1) and check standard (Standard Solution 2) are both prepared at the target working concentration of 0.3 mg/mL taking into consideration the potency, as-is of the standard. The samples are prepared at the target active concentration of 0.3 mg/mL by preparing a sample at 0.04% (w/v). [table]

[2] = Stability of ceftolozane salts at 40° C. and 75% RH for one week, loss of purity by HPLC; conditions: 40° C. and 75% relative humidity, one week (7 days), initial purity minus purity after storage
Procedure: as §1

[3] = Dry stability of lyophilized ceftolozane zwitterion/stabilizing agent compositions at 40° C./75% RH, purity by HPLC; conditions: lyophilized solid
Procedure: The following HPLC method was used to measure ceftolozane purity disclosed in Examples 13 through 15.
HPLC conditions for Ceftolozane Purity:
Mobile Phase A: 50 mM Sodium Perchlorate, pH 2.5
Mobile Phase B: 20% ACN in 63 mM Sodium Perchlorate, pH 2.5
Column: Phenomenex Develosil ODS-UG-5, 5 μm, 250 mm×4.6 mm
Sample Solution: 1 mg/mL in water
Active ceftolozane zwitterion (“Cef”; 1620 mg; 2.1 mmol) and sodium chloride (122 mg; 2.1 mmol) were dissolved in 8.25 mL of sterile water to obtain pale yellowish solution. Aliquoted the complex solution to 5-mL freeze drying vials (0.45 mL per vial, 18 vials in total) which were positioned in a lyophilization tray. The key lyophilization conditions included freezing at −50° C. to −55° C. for 2 hours, primary drying at −30° C., 50 millitorrs for 40 hours, secondary drying at 20° C., 50 millitorrs for 7 hours, and storing at 5° C., 600 millitorrs until harvesting. The sublimate was condensed at −60° C. The freeze drying vials were harvested, inserted with proper stoppers, sealed with crimp seals, and labeled as Cef:NaCl(1:1) for dry stability evaluation at 40° C./75% RH. The vials were stored at 40° C. and 75% relative humidity (RH).
The following compositions were prepared analogously: ceftolozane zwitterion and sodium chloride (1:0.5) complex, ceftolozane zwitterion and sodium chloride (1:2) complex, ceftolozane zwitterion and sodium sulfate (1:1) complex, ceftolozane zwitterion and sodium sulfate (1:0.5) complex, ceftolozane zwitterion and sodium sulfate (1:2) complex, ceftolozane zwitterion and calcium chloride (1:1) complex, ceftolozane zwitterion and calcium chloride (1:0.5) complex, ceftolozane zwitterion and calcium chloride (1:2) complex, ceftolozane zwitterion and magnesium chloride (1:1) complex, ceftolozane zwitterion and magnesium chloride (1:0.5) complex, ceftolozane zwitterion and magnesium chloride (1:2) complex.
These compositions and ceftolozane zwitterion alone were evaluated for stability at 40° C./75% RH by HPLC. The dry samples were dissolved in water for loading onto the column.

[4] = listed as phosphate salt of ceftolozane

Compound: Cn1c(N)c(NC(=O)NCCN)c[n+]1CC1=C(C(=O)O)N2C(=O)[C@@H](NC(=O)/C(=N\OC(C)(C)C(=O)O)c3nsc(N)n3)[C@H]2SC1 [Ceftolozane chloride, ceftolozane chloride]
- 4 w, Loss of Purity [1]: 2.9%
- 2 w, Loss of Purity [1]: 1.0%
- 1 w, Loss of Purity [2]: 7.5%
- 1 w, Loss of Purity ([2]; listed as chloride salt of ceftolozane): 7.5%

Compound: Cn1c(N)c(NC(=O)NCCN)c[n+]1CC1=C(C(=O)O)N2C(=O)[C@@H](NC(=O)/C(=N\OC(C)(C)C(=O)O)c3nsc(N)n3)[C@H]2SC1 [Ceftolozane sulfate, 5-amino-4-{[(2-aminoethyl)carbamoyl]amino}-2-{[(6R,7R)-7-({(2Z)-2-(5-amino-1,2,4-thiadiazol-3-yl)-2-[(1-carboxy-1-methylethoxy)imino]acetyl}amino)-2-carboxy-8-oxo-5-thia-1-azabicyclo[4.2.0]oct-2-en-3-yl]methyl}-1-methyl-1H-pyrazolium monosulfate, reference compound]
- 4 w, Loss of Purity [1]: 5.1%
- 2 w, Loss of Purity [1]: 1.2%
- 1 w, Loss of Purity [2]: 22.4%

Compound: Cn1c(N)c(NC(=O)NCCN)c[n+]1CC1=C(C(=O)[O-])N2C(=O)[C@@H](NC(=O)/C(=N\OC(C)(C)C(=O)O)c3nsc(N)n3)[C@H]2SC1 [Ceftolozane zwitterion, (6R,7R)-3-[(5-amino-4-{[(2-aminoethyl)carbamoyl]amino}-1-methyl-1H-pyrazol-2-ium-2-yl)methyl]-7-({(2Z)-2-(5-amino-1,2,4-thiadiazol-3-yl)-2-[(1-carboxy-1-methylethoxy)imino]acetyl}amino)-8-oxo-5-thia-1-azabicyclo[4.2.0]oct-2-ene-2-carboxylate]
- % purity of Ceftolozane, 3 day ([3]; 3 day at 40° C./75% RH): 88.0%
- % purity of Ceftolozane, 7 day ([3]; 7 day at 40° C./75% RH): 84.5%
- % purity of Ceftolozane, 14 day ([3]; 14 day at 40° C./75% RH): 77.9%
- % purity of Ceftolozane, T0 ([3]; T0 (start of storage at 40° C./75% RH)): 92.6%
- 4 w, Loss of Purity [1]: 7.4%
- 2 w, Loss of Purity [1]: 3.6%
- 1 w, Loss of Purity [2]: 14.4%

Compound: ceftolozane bromide
- 4 w, Loss of Purity [1]: 2.3%
- 2 w, Loss of Purity [1]: 0.4%
- 2 w, Loss of Purity ([1]; listed as bromide salt of ceftolozane): 0.4%
- 1 w, Loss of Purity [2]: 13.3%

Compound: ceftolozane edisylate
- 4 w, Loss of Purity [1]: 1.7%
- 4 w, Loss of Purity ([1]; listed as edisylate salt of ceftolozane): 1.7%
- 2 w, Loss of Purity [1]: 1.5%
- 1 w, Loss of Purity [2]: 9.6%

Compound: ceftolozane ketoglutarate
- 4 w, Loss of Purity [1]: 5.8%
- 2 w, Loss of Purity [1]: 3.5%
- 1 w, Loss of Purity [2]: 22.6%

Compound: ceftolozane maleate
- 4 w, Loss of Purity [1]: 5.2%
- 2 w, Loss of Purity [1]: 3.6%
- 1 w, Loss of Purity [2]: 9.3%

Compound: ceftolozane mesylate
- 4 w, Loss of Purity [1]: 4.3%
- 2 w, Loss of Purity [1]: 1.3%
- 1 w, Loss of Purity [2]: 8.3%

Compound: ceftolozane phosphate
- 4 w, Loss of Purity [1]: 13.7%
- 4 w, Loss of Purity [1, 4]: 13.7%
- 2 w, Loss of Purity [1]: 4.5%
- 2 w, Loss of Purity [1, 4]: 4.5%
- 1 w, Loss of Purity [2]: 30.9%
- 1 w, Loss of Purity [2, 4]: 30.9%

Source: US10000510B2, “Salt forms of ceftolozane” (Merck Sharp & Dohme Corp., priority 2014, dated 2018)
